Molecules are shown by their SMILES.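 Cultured in 96-well plates, cells were exposed to test compound for 48 hours across five concentrations. Abbreviation: GI50, concentration required for 50% inhibition of growth.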 Calls of active or inactive are those of the source. Cut-off read from the data, not from the text of the source: active = GI50 up to about 1.1 µM and inactive = higher.

Test systems include LXFL 529; DMS-114; M19-MEL; BT-549; XF498; DMS-273; HOP-18; RXF 631; DLD-1.
Common to all, as to assay: inhibition of tumour cell growth, NCI panel, 48 h

Regarding `COc1ccccc1/C=C1\CCC(Cc2ccccc2)(CN(C)C)C1=O` (configuration not stated), the GI50 in the test on LXFL 529 was 4.55 µM (inactive); in the test with DMS-114, 2.23 µM (inactive); in the test with M19-MEL it was 2.98 µM (inactive); in the test on BT-549, 5 µM (inactive); in the test with XF498 it was 4.3 µM (inactive); in the test on DMS-273, 0.294 µM (active). The GI50 in the test on HOP-18 was > 26.4 µM (inactive); in the test on RXF 631 it was 1.85 µM (inactive); with DLD-1, 0.414 µM (active).

In the case of `CC(=O)C1CC=C(C)CC1` (configuration not stated), the GI50 with LXFL 529, with DMS-114, in the test on M19-MEL, with XF498, with DMS-273 and in the test with HOP-18 was > 100 µM (inactive) throughout. Also, the GI50 with RXF 631 and in the test on DLD-1 was > 100 µM (inactive) throughout.

As to `COC(=O)C(C)(C)/N=C/N(C)C`, the GI50 with LXFL 529, with DMS-114, in the test with M19-MEL, in the test on XF498, in the test on DMS-273 and with HOP-18 was > 100 µM (inactive) in each case. Further, the GI50 with RXF 631 and with DLD-1 was > 100 µM (inactive) each time.

Consider `COc1cc([C@@H]2OC(=O)C3C2C(=O)O[C@H]3c2cc(OC)c(OC)c(OC)c2)cc(OC)c1OC` (some centres not stated), for which the GI50 in the test with DMS-114 is > 100 µM (inactive); in the test with M19-MEL it was > 100 µM (inactive); in the test with XF498, 6.08 µM (inactive); in the test with DMS-273, > 100 µM (inactive); with HOP-18, > 100 µM (inactive); in the test with RXF 631, > 100 µM (inactive).

As for `CC1=C(C(=O)Nc2ccccc2C)C(c2ccc([N+](=O)[O-])cc2)C(C(=O)Nc2ccccc2C)=C(C)N1`, the GI50 was 35.6 µM (inactive) in the test on LXFL 529; 33.3 µM (inactive) in the test on DMS-114; 64.1 µM (inactive) with M19-MEL; 40.3 µM (inactive) in the test with XF498; 43.4 µM (inactive) with DMS-273; 55.2 µM (inactive) in the test with HOP-18. Further, the GI50 in the test with RXF 631 is 76.6 µM (inactive); with DLD-1 it was 50 µM (inactive).

As for `O=C(Nc1nc2ccc([N+](=O)[O-])cc2s1)C(=O)C(C(=O)c1ccncc1)C1OC(=O)c2ccccc21` (configuration not stated), the GI50 in the test with LXFL 529 is > 100 µM (inactive); with DMS-114, > 100 µM (inactive); in the test on M19-MEL, > 100 µM (inactive); with XF498 it was > 100 µM (inactive); with DMS-273 it was > 100 µM (inactive); with HOP-18, 42.7 µM (inactive). Further, the GI50 in the test with RXF 631 and in the test on DLD-1 was > 100 µM (inactive) throughout.

The values above are taken from ChEMBL document CHEMBL1201862, “PubChem BioAssay data set” (2004).
